Assay results: ChEMBL document CHEMBL5505963, “Novel berberine derivatives as p300 histone acetyltransferase inhibitors in combination treatment for breast cancer” (Eur J Med Chem, 2024)
Active and inactive are the calls of the source. No cut-off for these calls is given here.

Columns and labels:
MCF7 [1] = assay: Antiproliferative activity against human MCF7 cells assessed as inhibition of cell proliferation incubated for 48 hrs by MTT assay; type: functional, cell-based; settings: MCF7, 48 h
[2] = target: Histone acetyltransferase p300 (Homo sapiens, UniProt Q09472); assay: Inhibition of p300 HAT (unknown origin) using 3H-acetyl-CoA as substrate assessed as H3 peptide acetylation preincubated with compound for 15 mins followed by substrate addition and measured after 30 mins by microbeta scintillation counter analysis
Histone acetyltransferase p300, sequence (Q09472 whole entry): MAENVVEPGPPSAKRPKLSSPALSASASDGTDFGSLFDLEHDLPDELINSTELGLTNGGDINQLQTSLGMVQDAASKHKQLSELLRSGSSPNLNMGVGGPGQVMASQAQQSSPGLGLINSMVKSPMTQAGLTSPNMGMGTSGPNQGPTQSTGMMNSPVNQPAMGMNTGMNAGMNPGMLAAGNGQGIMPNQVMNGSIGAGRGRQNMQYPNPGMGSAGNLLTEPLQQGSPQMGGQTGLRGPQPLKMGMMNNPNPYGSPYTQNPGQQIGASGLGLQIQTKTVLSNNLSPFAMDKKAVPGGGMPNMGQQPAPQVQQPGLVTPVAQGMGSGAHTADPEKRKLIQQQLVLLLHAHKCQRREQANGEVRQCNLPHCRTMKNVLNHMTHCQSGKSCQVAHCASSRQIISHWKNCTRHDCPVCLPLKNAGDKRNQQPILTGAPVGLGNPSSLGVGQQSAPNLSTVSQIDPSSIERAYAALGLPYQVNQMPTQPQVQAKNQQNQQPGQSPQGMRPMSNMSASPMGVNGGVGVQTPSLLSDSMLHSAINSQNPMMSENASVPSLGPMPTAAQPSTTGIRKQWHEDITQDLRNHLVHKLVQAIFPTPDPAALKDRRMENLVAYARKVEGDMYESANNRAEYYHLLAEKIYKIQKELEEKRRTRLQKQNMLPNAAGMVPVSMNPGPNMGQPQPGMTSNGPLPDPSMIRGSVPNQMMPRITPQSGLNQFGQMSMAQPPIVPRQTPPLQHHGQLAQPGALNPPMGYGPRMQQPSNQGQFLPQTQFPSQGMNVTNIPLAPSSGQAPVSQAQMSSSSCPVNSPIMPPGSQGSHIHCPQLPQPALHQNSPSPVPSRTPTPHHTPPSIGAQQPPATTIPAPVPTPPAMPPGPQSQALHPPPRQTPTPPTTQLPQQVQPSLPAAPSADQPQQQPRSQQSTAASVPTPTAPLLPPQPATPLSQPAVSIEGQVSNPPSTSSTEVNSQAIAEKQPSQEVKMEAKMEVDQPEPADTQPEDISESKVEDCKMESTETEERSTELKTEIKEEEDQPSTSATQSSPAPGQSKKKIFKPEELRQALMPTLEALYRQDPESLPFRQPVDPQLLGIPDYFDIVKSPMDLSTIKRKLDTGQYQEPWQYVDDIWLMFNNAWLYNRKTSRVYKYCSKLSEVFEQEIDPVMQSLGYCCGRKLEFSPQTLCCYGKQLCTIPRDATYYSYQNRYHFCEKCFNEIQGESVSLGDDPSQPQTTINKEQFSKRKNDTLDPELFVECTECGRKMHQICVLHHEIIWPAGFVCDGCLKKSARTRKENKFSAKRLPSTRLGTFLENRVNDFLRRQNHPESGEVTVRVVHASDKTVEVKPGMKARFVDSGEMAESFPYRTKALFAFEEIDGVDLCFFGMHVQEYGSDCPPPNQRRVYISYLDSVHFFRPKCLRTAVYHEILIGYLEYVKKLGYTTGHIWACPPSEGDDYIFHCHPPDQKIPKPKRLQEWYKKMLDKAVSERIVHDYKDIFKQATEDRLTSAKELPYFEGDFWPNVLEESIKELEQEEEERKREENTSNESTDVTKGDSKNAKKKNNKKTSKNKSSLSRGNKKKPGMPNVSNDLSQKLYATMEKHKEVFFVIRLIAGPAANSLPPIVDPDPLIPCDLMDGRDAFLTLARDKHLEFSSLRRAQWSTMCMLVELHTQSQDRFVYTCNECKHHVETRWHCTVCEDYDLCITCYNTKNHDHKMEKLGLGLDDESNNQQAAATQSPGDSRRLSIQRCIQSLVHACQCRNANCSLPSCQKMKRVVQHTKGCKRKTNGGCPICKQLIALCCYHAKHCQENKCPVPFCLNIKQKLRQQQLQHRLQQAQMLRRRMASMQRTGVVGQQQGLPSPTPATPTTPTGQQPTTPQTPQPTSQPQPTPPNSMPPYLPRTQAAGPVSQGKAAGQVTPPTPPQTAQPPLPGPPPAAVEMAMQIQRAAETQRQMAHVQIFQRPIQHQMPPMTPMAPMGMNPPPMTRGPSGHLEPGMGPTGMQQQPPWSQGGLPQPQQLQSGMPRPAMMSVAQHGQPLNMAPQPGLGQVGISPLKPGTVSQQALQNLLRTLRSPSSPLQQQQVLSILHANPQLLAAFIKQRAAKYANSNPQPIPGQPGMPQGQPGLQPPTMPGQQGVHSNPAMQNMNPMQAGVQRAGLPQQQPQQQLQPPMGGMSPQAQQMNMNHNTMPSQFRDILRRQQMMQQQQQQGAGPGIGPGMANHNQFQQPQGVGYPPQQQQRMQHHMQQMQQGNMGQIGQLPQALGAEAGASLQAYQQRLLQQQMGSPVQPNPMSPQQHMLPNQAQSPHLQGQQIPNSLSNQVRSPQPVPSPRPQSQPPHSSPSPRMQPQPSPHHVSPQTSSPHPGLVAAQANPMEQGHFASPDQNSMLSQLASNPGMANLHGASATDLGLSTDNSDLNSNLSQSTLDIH

MCF7 [3] = assay: Downregulation of survivin level in human MCF7 cells at 40 uM incubated for 24 hrs in presence of doxorubicin by Western blot analysis; type: functional, cell-based
MCF7 [4] = assay: Synergistic antiproliferative activity against human MCF7 cells assessed as combination index at 10 uM incubated for 48 hrs in presence of 1 microg/ml doxorubicin by Chou-Talalay method; type: functional
MCF7 [5] = assay: Synergistic antiproliferative activity against human MCF7 cells assessed as combination index at 10 uM incubated for 48 hrs in presence of 3 microg/ml doxorubicin by Chou-Talalay method; type: functional
PANC-1 = assay: Antiproliferative activity against human PANC-1 cells assessed as inhibition of cell growth incubated for 48 hrs by MTT assay; type: functional, cell-based; settings: PANC-1, 48 h
MCF7 [6] = assay: Synergistic antiproliferative activity against human MCF7 cells assessed as combination index at 20 uM incubated for 48 hrs in presence of 2.5 microg/ml doxorubicin by Chou-Talalay method; type: functional
MCF7 [7] = assay: Synergistic antiproliferative activity against human MCF7 cells assessed as combination index at 10 uM incubated for 48 hrs in presence of 0.5 microg/ml doxorubicin by Chou-Talalay method; type: functional
MCF7 [8] = assay: Synergistic antiproliferative activity against human MCF7 cells assessed as combination index at 20 uM incubated for 48 hrs in presence of 2 microg/ml doxorubicin by Chou-Talalay method; type: functional
MCF7 [9] = assay: Inhibition of cell migration in human MCF7 cells assessed as reduction in scratch measured after 24 hrs by microscopic analysis; type: functional
MCF7 [10] = assay: Synergistic antiproliferative activity against human MCF7 cells assessed as combination index at 5 uM incubated for 48 hrs in presence of 3 microg/ml doxorubicin by Chou-Talalay method; type: functional
MCF7 [11] = assay: Synergistic antiproliferative activity against human MCF7 cells assessed as reduction in cell viability at 5 to 20 uM incubated for 48 hrs in presence of 1 microg/ml doxorubicin by MTT assay; type: functional; settings: dose 5-20 µM
MCF7 [12] = assay: Synergistic antiproliferative activity against human MCF7 cells assessed as combination index at 20 uM incubated for 48 hrs in presence of 1 microg/ml doxorubicin by Chou-Talalay method; type: functional
MCF7 [13] = assay: Synergistic antiproliferative activity against human MCF7 cells assessed as combination index at 40 uM incubated for 48 hrs in presence of 2.5 microg/ml doxorubicin by Chou-Talalay method; type: functional
[14] = Toxicity in BALB/c nude mouse xenografted with human MCF7 cells assessed as loss of body weight at 50 mg/kg, ip measured upto 14 days; type: organism-based; settings: in vivo, 336 h, time < 14 day
MCF7 [15] = assay: Synergistic antiproliferative activity against human MCF7 cells assessed as combination index at 40 uM incubated for 48 hrs in presence of 2 microg/ml doxorubicin by Chou-Talalay method; type: functional
MCF7 [16] = assay: Inhibition of cell invasion in human MCF7 cells measured after 24 hrs by crystal violet staining based microscopic analysis; type: functional
MCF7 [17] = assay: Synergistic antiproliferative activity against human MCF7 cells assessed as combination index at 5 uM incubated for 48 hrs in presence of 2 microg/ml doxorubicin by Chou-Talalay method; type: functional
MCF7 [18] = assay: Downregulation of H3K27 level in human MCF7 cells incubated for 24 hrs by Western blot analysis; type: functional, cell-based; settings: dose <= 160.0 µM
MCF7 [19] = assay: Synergistic antiproliferative activity against human MCF7 cells assessed as combination index at 20 uM incubated for 48 hrs in presence of 0.5 microg/ml doxorubicin by Chou-Talalay method; type: functional
MCF7 [20] = assay: Synergistic antiproliferative activity against human MCF7 cells assessed as combination index at 5 uM incubated for 48 hrs in presence of 0.5 microg/ml doxorubicin by Chou-Talalay method; type: functional
MCF7 [21] = assay: Synergistic antiproliferative activity against human MCF7 cells assessed as combination index at 20 uM incubated for 48 hrs in presence of 1.5 microg/ml doxorubicin by Chou-Talalay method; type: functional
LNCaP = assay: Antiproliferative activity against human LNCaP cells assessed as inhibition of cell growth incubated for 48 hrs by MTT assay; type: functional, cell-based
MCF7 [22] = assay: Synergistic antiproliferative activity against human MCF7 cells assessed as combination index at 5 uM incubated for 48 hrs in presence of 1 microg/ml doxorubicin by Chou-Talalay method; type: functional
MCF7 [23] = assay: Synergistic antiproliferative activity against human MCF7 cells assessed as combination index at 40 uM incubated for 48 hrs in presence of 3 microg/ml doxorubicin by Chou-Talalay method; type: functional
MCF7 [24] = assay: Synergistic antiproliferative activity against human MCF7 cells assessed as combination index at 40 uM incubated for 48 hrs in presence of 1.5 microg/ml doxorubicin by Chou-Talalay method; type: functional
MCF7 [25] = assay: Antitumor activity against human MCF7 cells xenografted in BALB/c nude mouse assessed as tumor growth inhibition at 50 mg/kg, ip measured upto 14 days; type: functional; settings: MCF7, 336 h, time <= 14 day, read-out: TGI
MCF7 [26] = assay: Downregulation of c-Myc level in human MCF7 cells at 40 uM incubated for 24 hrs in presence of doxorubicin by Western blot analysis; type: functional, cell-based
MCF7 [27] = assay: Induction of apoptosis in human MCF7 cells assessed as upregulation of cleaved caspase 3 level at 40 uM incubated for 24 hrs in presence of doxorubicin by Western blot analysis; type: functional, cell-based
MCF7 [28] = assay: Synergistic antiproliferative activity against human MCF7 cells assessed as reduction in cell viability at 5 to 20 uM incubated for 48 hrs in presence of 40 microg/ml doxorubicin by MTT assay; type: functional; settings: dose 5-20 µM
MCF7 [29] = assay: Synergistic antiproliferative activity against human MCF7 cells assessed as combination index at 5 uM incubated for 48 hrs in presence of 2.5 microg/ml doxorubicin by Chou-Talalay method; type: functional
MCF7 [30] = assay: Synergistic antiproliferative activity against human MCF7 cells assessed as combination index at 10 uM incubated for 48 hrs in presence of 2 microg/ml doxorubicin by Chou-Talalay method; type: functional
MCF7 [31] = assay: Induction of apoptosis in human MCF7 cells assessed as upregulation of cleaved PARP level at 40 uM incubated for 24 hrs in presence of doxorubicin by Western blot analysis; type: functional, cell-based
MCF7 [32] = assay: Inhibition of cell invasion in human MCF7 cells measured after 24 hrs in presence of doxorubicin by crystal violet staining based microscopic analysis; type: functional
MCF7 [33] = assay: Synergistic antiproliferative activity against human MCF7 cells assessed as reduction in cell viability at 5 to 20 uM incubated for 48 hrs in presence of 2.5 microg/ml doxorubicin by MTT assay; type: functional; settings: dose 5-20 µM
MCF7 [34] = assay: Inhibition of cell migration in human MCF7 cells assessed as measured after 24 hrs in presence of doxorubicin by microscopic analysis; type: functional
MCF7 [35] = assay: Antiproliferative activity against human MCF7 cells assessed as inhibition of cell growth incubated for 48 hrs by MTT assay; type: functional, cell-based; settings: MCF7, 48 h
MCF7 [36] = assay: Synergistic antiproliferative activity against human MCF7 cells assessed as combination index at 5 uM incubated for 48 hrs in presence of 1.5 microg/ml doxorubicin by Chou-Talalay method; type: functional
MCF7 [37] = assay: Synergistic antiproliferative activity against human MCF7 cells assessed as combination index at 10 uM incubated for 48 hrs in presence of 2.5 microg/ml doxorubicin by Chou-Talalay method; type: functional
MCF7 [38] = assay: Synergistic antiproliferative activity against human MCF7 cells assessed as combination index at 10 uM incubated for 48 hrs in presence of 1.5 microg/ml doxorubicin by Chou-Talalay method; type: functional
MCF7 [39] = assay: Synergistic antiproliferative activity against human MCF7 cells assessed as combination index at 40 uM incubated for 48 hrs in presence of 1 microg/ml doxorubicin by Chou-Talalay method; type: functional
MCF-10A = assay: Antiproliferative activity against human MCF-10A cells assessed as inhibition of cell growth incubated for 48 hrs by MTT assay; type: functional, cell-based
MCF7 [40] = assay: Synergistic antiproliferative activity against human MCF7 cells assessed as combination index at 20 uM incubated for 48 hrs in presence of 3 microg/ml doxorubicin by Chou-Talalay method; type: functional
MCF7 [41] = assay: Antitumor activity against human MCF7 cells xenografted in BALB/c nude mouse assessed as tumor growth inhibition at 50 mg/kg, ip measured upto 14 days in presence of doxorubicin; type: functional; settings: MCF7, 336 h, time <= 14 day, read-out: TGI
MCF7 [42] = assay: Synergistic antiproliferative activity against human MCF7 cells assessed as combination index at 40 uM incubated for 48 hrs in presence of 0.5 microg/ml doxorubicin by Chou-Talalay method; type: functional
MCF7 [43] = assay: Downregulation of H3K27 level in human MCF7 cells upto 160 uM incubated for 24 hrs in presence of doxorubicin by Western blot analysis; type: functional, cell-based

SMILES: COc1cc2cc3[n+](cc2cc1OC)CCOc1cc2c(cc1-3)OCO2.[Cl-]
- IC50 (MCF7 [1]): 17.3 µM
- IC50 [2]: 1.51 µM
- Activity (MCF7 [3]): Active
- CI (MCF7 [4]): 37.99
- CI (MCF7 [5]): 13.65
- IC50 (PANC-1): > 50 µM
- CI (MCF7 [6]): 2.28
- CI (MCF7 [7]): 88.25
- CI (MCF7 [8]): 2.65
- inhibition (INH) (MCF7 [9]): 52.05%
- CI (MCF7 [10]): 39.24
- Activity (MCF7 [11]): 36%
- CI (MCF7 [12]): 3.44
- CI (MCF7 [13]): 0.6
- Activity [14]: Non-Toxic
- CI (MCF7 [15]): 0.66
- inhibition (MCF7 [16]): Active
- CI (MCF7 [17]): 113.55
- Activity (MCF7 [18]): Dose-Dependent Effect
- CI (MCF7 [19]): 3.11
- CI (MCF7 [20]): 517.04
- CI (MCF7 [21]): 3.59
- IC50 (LNCaP): 43.7 µM
- CI (MCF7 [22]): 165.98
- CI (MCF7 [23]): 0.55
- CI (MCF7 [24]): 0.57
- inhibition in vivo at 50 mg/kg (MCF7 [25]): 59.9%
- Activity (MCF7 [26]): Active
- Activity (MCF7 [27]): Active
- Activity (MCF7 [28]): 36%
- CI (MCF7 [29]): 57.34
- CI (MCF7 [30]): 80.19
- Activity (MCF7 [31]): Active
- inhibition (MCF7 [32]): Active
- Activity (MCF7 [33]): 27%
- inhibition (INH) (MCF7 [34]): 34.22%
- IC50 (MCF7 [35]): 17.3 µM
- CI (MCF7 [36]): 94.38
- CI (MCF7 [37]): 12.07
- CI (MCF7 [38]): 38.44
- CI (MCF7 [39]): 0.59
- IC50 (MCF-10A): > 50 µM
- CI (MCF7 [40]): 1.86
- inhibition in vivo at 50 mg/kg (MCF7 [41]): 83.9%
- CI (MCF7 [42]): 1.85
- Activity (MCF7 [43]): Active
